Patent publication US11213499B1, “Use of 3,3′-diselenodipropionic acid (DSePA) as an anticancer agent” (Secretary, Department of Atomic Energy, priority 2020, dated 2022)
Read-outs that look alike come from different tables or passages of the source.

What was measured:
[1] = tested on: A549 (Human non-small cell lung adenocarcinoma); test: SRB/MTT anti-proliferative assay, A549; format: cell-based; settings: 48 hours treatment, read-out: GI50 (Concentration of drug causing 50% inhibition of cell growth)
Procedure: (§1) The anticancer effect of DSePA was evaluated using a panel of twenty-five human cancer cell lines of different tissue origins. Cells were treated with the increasing concentrations (0.1-100 μM) of DSePA for 48 h and viability was monitored by (Sulforhodamine B) SRB assay or MTT assay.
(§2) Cell culture and DSePA synthesis—DSePA was synthesized and characterized as described in our previous reports. Cell lines were cultured in growth medium (DMEM/RPMI) supplemented with 10% FBS, 100 U/ml penicillin and 100 μg/ml streptomycin at 37° C. in a humidified 5% CO2 environment. The stock solution of DSePA was prepared fresh in cell culture medium and diluted with the same to achieve the desired concentrations.
(§3) SRB/MTT Assay—To evaluate the anti-proliferative effect of DSePA, Cells (˜5×10^3) suspended in 100 μl of complete culture medium were seeded in each well of 96 well plates. The cells were allowed to attach and grow for 24 h, treated with desired concentrations of DSePA dissolved in culture medium for 48 h and then processed for SRB/MTT assay as described in literature. The percentage (%) cytotoxicity was calculated from the decrease in absorbance as compared to that of control group.

[2] = tested on: H460 (Human non-small cell lung adenocarcinoma); test: SRB/MTT anti-proliferative assay, H460; format: cell-based; settings: 48 hours treatment, read-out: GI50 (Concentration of drug causing 50% inhibition of cell growth)
Procedure: as §1, §2, §3

[3] = tested on: CHO (Chinese Hamster Ovary (normal)); test: SRB/MTT assay, normal CHO cells; format: cell-based
Procedure: as §1, §2, §3

[4] = mice; cited from earlier work

O=C(O)CC[Se][Se]CCC(=O)O [DSePA, 3,3′-diselenodipropionic acid]
GI50 [1]: 10 µM
GI50 ([1]; Homo sapiens, A549, 48 h): ≤ 10 µM
GI50 [2]: 8 µM
GI50 ([2]; Homo sapiens, NCI-H460, 48 h): ≤ 10 µM
toxicity in normal cell types ([3]; CHO, 0.1-100 μM, 48 h): did not show toxicity
GI50 ([3]; Cricetulus griseus, CHO normal cells, 48 hours treatment, SRB/MTT assay, read-out: GI50 (Concentration of drug causing 50% inhibition of cell growth)): > 100 µM
estimated median oral Lethal dose (LD50) cut-off [4]: 200 mg/kg
